Experimental data taken from US20240002474A1, “Systems and Methods for Diagnostic Assessment and Treatment of Insulin Resistance and Hyperglycemia” (The Board of Trustees of the Leland Stanford Junior …, priority 2020, published 2024).

Tests used:
HepaRG hepatocytes = assay: Mitochondrial insulin stimulation test (MIST), oxygen consumption rate in HepaRG hepatocytes; assay type: cell-based, human; details: for insulin-dependent mitochondrial respiration / maximal respiration (FCCP uncoupling): HepaRG, 10-minute pretreatment with peptide (10 μM) before exposure to IR or T2D patient serum, vs cells without peptide
Method: Mitochondrial Insulin Stimulation Test. HepaRG hepatocytes or skeletal muscle cells were plated at 40,000 cells/well in Seahorse XF96 plate (Agilent) the day before the assay. Cells were serum starved by culturing in respective media without serum or growth factor supplements. Individual serum was diluted 1:100 in supplement-free media and cells were incubated with media containing individual serum for 4 hours. Cells were washed three times with PBS and incubated with seahorse assay media (buffer free RPMI with mM glucose, mM sodium pyruvate and mM glutamine) for 1 hour in a CO2 free incubation at 37° C. Seahorse measurements were performed every 5 minutes with mixing. Mitochondrial function was perturbed by administration of insulin (100 nM), oligomycin (1 μM), FCCP (2 μM), and rotenone and antimycin A (1 μM). Data was processed by normalizing basal respiration to zero and the maximal respiration following FCCP administration of the positive control (no serum exposure with insulin stimulation) to 1.
IgG purification and fragmentation. IgG purified from serum was diluted (1:100) in Protein G binding buffer (Thermo) and incubated with Protein G Agarose Beads (Thermo) for 4 hours on an orbital shaker at 4° C. Beads were washed three times with Protein G binding buffer and IgG was eluted by incubated beads in Protein G elution buffer, pH 2.7 for 5 minutes, centrifuged and the supernatant was quenched with Tris-HCl buffer, pH 9.0. Purified IgG was buffer exchanged to using 15 kDa spin column to PBS. Purification was validated by immunoblotting. Fab fragments were generated by papain cleavage using Pierce […] (Thermo Scientific) according to manufacturer's protocol.
Peptide Synthesis. SYN746 (QRFCTGHFGGLYPCHGP; SEQ ID NO: 1) and HIV TAT conjugated FcRn C-terminal tail-dominant negative ([…]; SEQ ID Nos: 2 and 3) were synthesized using Fmoc solid phase peptide synthesis and purified using preparative HPLC using aC18 reverse-phase column and characterized by liquid-chromatography mass spectrometry by University of Minnesota Peptide Synthesis Core.

FcRn = FcRn (Homo sapiens, UniProt P55899); details: previously published peptide; similar to IgG; cited from earlier work
Sequence of FcRn (P55899 24-297 limits assumed): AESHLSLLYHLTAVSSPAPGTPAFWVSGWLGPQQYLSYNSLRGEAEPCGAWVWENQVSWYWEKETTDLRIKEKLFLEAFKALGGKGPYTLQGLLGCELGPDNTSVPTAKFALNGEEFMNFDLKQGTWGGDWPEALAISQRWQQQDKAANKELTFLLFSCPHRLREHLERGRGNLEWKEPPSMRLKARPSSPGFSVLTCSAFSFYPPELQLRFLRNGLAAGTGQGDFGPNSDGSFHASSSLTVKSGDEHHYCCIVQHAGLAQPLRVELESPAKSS
Sequence of FcRn (P61769 21-119 partner): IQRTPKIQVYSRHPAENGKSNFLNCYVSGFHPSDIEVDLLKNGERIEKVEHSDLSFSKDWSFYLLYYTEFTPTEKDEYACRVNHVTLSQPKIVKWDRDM

With “YGRKKRRQRRRGAPWISLRGDDTGVLLPTP [dominant negative]” the insulin-dependent mitochondrial respiration (HepaRG hepatocytes) was “significant rescue” and the “maximal respiration (FCCP uncoupling)” value (HepaRG hepatocytes) was “significant rescue”.
For “QRFCTGHFGGLYPCHGP (listed as Homo sapiens) [SYN746]”, the “binding to FcRn” value (FcRn) is listed as “pH-sensitive binding”, the “mitochondrial function or insulin stimulation in control cells” value (HepaRG hepatocytes; HepaRG control cells, 10-minute pretreatment) is listed as “did not affect” and the insulin-dependent mitochondrial respiration (HepaRG hepatocytes) is listed as “dramatic rescue”. The “maximal respiration (FCCP uncoupling)” value (HepaRG hepatocytes) was “dramatic rescue”.
